From patent US10945433B2, “Method for treating coffee rust, citrus black spot, citrus scab and banana black sigatoka diseases” (Bayer CropScience Aktiengesellschaft, priority 2015, dated 2021) come the findings set out here.

The nature of series [1]: log P determination by HPLC on reversed-phase column (EEC Directive 79/831 Annex V.A8). Format: physicochemical. As to the method: In table 1, the log P values were determined in accordance with EEC Directive 79/831 Annex V.A8 by HPLC (High Performance Liquid Chromatography) on a reversed-phase column (C 18), using the method described below:
Temperature: 40° C.; Mobile phases: 0.1% aqueous formic acid and acetonitrile; linear gradient from 10% acetonitrile to 90% acetonitrile.
Calibration was carried out using unbranched alkan-2-ones (comprising 3 to 16 carbon atoms) with known log P values (determination of the log P values by the retention times using linear interpolation between two successive alkanones). lambda-max-values were determined using UV-spectra from 200 nm to 400 nm and the peak values of the chromatographic signals.

In series [2] the test system is Mycosphaerella fijiensis. Nature of the series: Control of Black Sigatoka on banana crop, field trials. Format: in vivo. Conditions: for Number healthy Leaves 2DAT7: Trial A, untreated 8.5; for Number healthy Leaves 2DAT7 / Number healthy Leaves 25DAT13: per banana plant at end of trial; for Number healthy Leaves 25DAT13: Trial B, untreated 8.7. As to the method:
Two field trials were implemented in 2013 in Costa Rica and Philippines to evaluate the performance of compounds against Mycosphaerella fijiensis infection on Banana.
A typical fungicide formulation containing 100 g of compound per liter was applied every 7 to 12 days in consecutive foliar sprays. The trials were carried out according to standard experimental practice with spay adjuvant and mineral oil used in tank mix as it is usual on banana plantation in each country.
Data are expressed in Number of healthy leaves present at the end of the trial on each Banana plant (more leaves present mean better quantity and quality of harvest).

Series [3] concerns Guignardia citricarpa. The experiment in a line: Control of black spot (Guignardia citricarpa) on citrus crop, field trials. It counts as in vivo. Conditions: 2000 to 3000 L/Ha. The source says:
(§1) Five field trials were implemented in South Africa, Brazil and Japan in 2013 and 2014 to evaluate the performance of compounds against two main diseases having high effect on marketable yield: Elsinoe fawcettii and Guignardia citricarpa are hosted by many citrus species. Both are able to infest fruits and both are quarantine pathogens limiting the exportation outside of the growing countries. The protection against these two pathogens gives a clear advantage for farmers to be present on the export market.
(§2) The trials were carried out according to standard experimental practice to protect the canopy including fruits in each country. A typical fungicide formulation containing 100 g of compound per liter was applied in consecutive foliar sprays at 5 to 6 occasions every month to control black spot and at 1 to 3 occasions every 14 days to control Scab infections. Spray volumes vary from 2000 L to 3000 L/Ha.

For series [4], the system named is Hemileia vastatrix. The experiment in a line: Control of rust (Hemileia vastatrix) on coffee crop, field trials. Format: in vivo. Conditions: 50 g a.i./ha, coffee leaves, foliar sprays, vs untreated. The method, then:
Four field trials were implemented in Brazil in 2013 and 2014 to evaluate the performance of compounds against Hemileia vastatrix on Coffee.
The trials were carried out according to standard experimental practice to protect the canopy from the rust, responsible to defoliation and then yield losses. A typical fungicide formulation containing 100 g of compound per liter was applied in consecutive foliar sprays at 3 occasions every 30 to 50 days in most of the trials. Spray volumes vary from 400 L to 500 L/Ha.
Assessments were realized on leaves—Data are expressed in % efficacy against rust on leaves compared to untreated plants.

Series [5] deals with Elsinoe fawcettii. The experiment in a line: Control of scab (Elsinoe fawcettii) on citrus crop, field trials. It counts as in vivo. Conditions: 3000 L/Ha.
Description: as §1, §2

In series [1], “N-cyclopropyl-3-(difluoromethyl)-5-fluoro-N-(2-isopropylbenzyl)-1-methyl-1H-pyrazole-4-carbothio-amide [Compound A20]” yielded a log partition coefficient (logP) of 4.36.

With `CCc1ccc(F)cc1CN(C(=O)c1c(C(F)F)nn(C)c1F)C1CC1` [Compound A6, N-cyclopropyl-3-(difluoromethyl)-N-(2-ethyl-5-fluorobenzyl)-5-fluoro-1-methyl-1H-pyrazole-4-carboxamide], the chromatographic logP in series [1] (reversed-phase C18 HPLC column, HPLC, reversed-phase C 18, 40° C., 0.1% aqueous formic acid and acetonitrile gradient) worked out at 3.14.

`CC(C)c1ccc(Cl)cc1CN(C(=O)c1c(C(F)F)nn(C)c1F)C1CC1` [Compound A5, N-(5-chloro-2-isopropylbenzyl)-N-cyclopropyl-3-(difluoromethyl)-5-fluoro-1-methyl-1H-pyrazole-4-carboxamide]: in series [2] (6.25 g ai/ha, banana, Black Sigatoka), the “average gain in leaves per plant” value was “about +3 leaves per plant”. The results for the “Number healthy Leaves 2DAT7” value in series [2] (6.25 g a.i./ha), in series [2] (12.5 g a.i./ha) and in series [2] (25 g a.i./ha) were 11.5, 12.2 and 12, respectively. The “Number healthy Leaves 25DAT13” value in series [2] (6.25 g a.i./ha) is listed as 13.4; in series [2] (12.5 g a.i./ha), 14.4; in series [2] (25 g a.i./ha), 16.2. Further, the “% Efficacy (Abbott)” value in series [3] (Trial A, 10 g a.i./100 L) is given as 73%; in series [3] (Trial A, 15 g a.i./100 L), 70%; in series [3] (Trial B, 10 g a.i./100 L), 72%; in series [3] (Trial B, 15 g a.i./100 L) it was 83%; in series [3] (Trial C, 10 g a.i./100 L) it was 91.3%; in series [3] (Trial C, 15 g a.i./100 L) it was 93.9%. The “% Efficacy (Abbott)” value is recorded as 84% in series [4] (Trial A); 61% in series [4] (Trial B); 95% in series [4] (Trial C); 73% in series [4] (Trial D); 96% in series [5] (Trial A, 2.5 g a.i./100 L); 95% in series [5] (Trial A, 5 g a.i./100 L). Besides, the “% Efficacy (Abbott)” value in series [5] (Trial B, 2.5 g a.i./100 L) is 92%; in series [5] (Trial B, 5 g a.i./100 L), 70%.

For `O=C(Nc1ccccc1-c1ccc(Cl)cc1)c1cccnc1Cl` [Boscalid, reference compound], in series [2] (150 g a.i./ha), the “Number healthy Leaves 25DAT13” value is listed as 13.1.
